Source: patent US20240277813A1, “TREATMENT OF OBESITY AND OBESITY-RELATED DISORDERS” (ANTAG THERAPEUTICS APS, priority 2021, published 2024)
“Also recorded” adds a separate entry of the source. *1 amine or outer side, *2 acyl side, *3 side chain or, on linkers, in order; H or OH if unused. Where a SMILES comes first, the peptide text is derived from it. Where no end group is shown, it is not given here. Side-chain parts run from the residue outwards. [ ]: non-standard residue; d: D form. The star is where a group is joined. C18 diacid = O=C(O)CCCCCCCCCCCCCCCCC(=O)*; C16 diacid = O=C(O)CCCCCCCCCCCCCCC(=O)*; γGlu = O=C(O)[C@H](CCC(=O)[*:2])N[*:1]; Glutaryl = O=C(CCCC(=O)[*:2])[*:1]; Nle = CCCC[C@H](N)C(=O)O; AEEA = NCCOCCOCC(=O)O; Aib = CC(C)(N)C(=O)O

Key:
[1] = in vivo
Text: During the treatment period all monkeys received daily SC injections after breakfast with the respective test substance for a total of 42 days. […] All treatment groups and the vehicle group received injection volumes based on individual body weights. After the 42 days of treatment, body weight, food intake, and blood/serum chemistries were monitored for an additional 14-day washout period. Blood collections and dosing occurred in conscious monkeys for the entire study.

[2] = tested on: High fat diet (HFD) induced obese cynomolgus monkeys; experiment: cynomolgus monkey efficacy study, 42 days daily SC treatment; format: in vivo, cynomolgus monkeys (Macaca fascicularis)
Experimental: Cynomolgus monkeys (Macaca fascicularis) were fed a HFD consisting of 50 g of KBI proprietary standard monkey formula feed in the morning 9:00 to 10:00 AM, 150 g apple in the afternoon 14:00 to 15:00 PM, and 100 g of KBI proprietary HFD in the evening 16:00 to 17:00 PM. Water was provided ad libitum. […] Values represent means±SEM, n=9-10 per group.
High fat diet (HFD) induced obese cynomolgus monkeys (Macaca fascicularis, male, >7.5 kg, fasting glucose<90 mg/dL, fasting insulin<60 μU/mL, >8 years of age) were obtained from KBI's stock colony. Lighting in animal holding rooms was maintained on 12:12 hour light:dark cycle, and the ambient temperature and humidity range was set at 18-29 degrees C. and 30 to 90%, respectively. The monkeys were individually housed in cages arranged to allow visual and auditory contacts with conspecifics. The monkeys were provided with cage toys for environmental enrichment to ensure adequate welfare and psychological well-being.
8 days prior to the treatment phase, and KBI's proprietary HFD was provided adlibitum which is in contrast to the defined amount of 100 g that the monkeys were normally served. During the entire treatment phase (42 days) and washout period (14 days) monkeys were provided three meals per day consisting of 50 g of KBI proprietary standard monkey formula feed in the morning 9:00-10:00 AM, one regular apple (150 g) in the afternoon 14:00-15:00 PM, and ad libitum of KBI proprietary HFD in the evening 16:00-17:00 PM. Water was provided adlibitum.
The cynomolgus monkeys were acclimated/trained to experimental procedures for three weeks followed by one week with continued training and introduction of adlibitum HFD prior to start of treatment. The monkeys were randomly sorted into six separate dose groups with 10 animals each based on acclimation data sets.
Daily food intake measurements were recorded during the entire duration of the study from the acclimation period until the end of the washout period. After each feeding time, all of the remaining food was withdrawn and intake was determined by weighing the left-over food.
Body weights were measured every third to fourth day during the study period. The monkeys were non-sedated and were transferred into small transfer cages and transported to a weighing scale. The tare weights of the transfer cages were determined prior to weighing the monkeys inside the transfer cages. The monkeys were weighed twice inside the transfer cages and recordings were made to the nearest 0.1 kg.
Whole blood sample was collected from a peripheral vein after an overnight fast according to the specified time points and transferred directly into serum separation tubes (SST). Serum was separated by centrifugation at 2500×g for 10 min at 4° C. Insulin, CTX and PTH levels were analyzed using the Cobas e411 Immunology analyzer. Other parameters were analyzed using the Roche C311 or C501 biochemical analyzer.

[3] = tested on: mice on a fat-diet, or lean mice; conditions: cited from earlier work; for absolute body weight or cumulative food intake: chronic administration, compared with vehicle control
DPP-IV enzyme = DPP-IV enzyme (Homo sapiens, UniProt P27487); conditions: cited from earlier work
high-fat mice = conditions: daily intraperitoneal injections, cited from earlier work; for glucose tolerance / glycaemic control: compared with high-fat controls

DPP-IV enzyme, sequence (P27487 whole entry, species assumed): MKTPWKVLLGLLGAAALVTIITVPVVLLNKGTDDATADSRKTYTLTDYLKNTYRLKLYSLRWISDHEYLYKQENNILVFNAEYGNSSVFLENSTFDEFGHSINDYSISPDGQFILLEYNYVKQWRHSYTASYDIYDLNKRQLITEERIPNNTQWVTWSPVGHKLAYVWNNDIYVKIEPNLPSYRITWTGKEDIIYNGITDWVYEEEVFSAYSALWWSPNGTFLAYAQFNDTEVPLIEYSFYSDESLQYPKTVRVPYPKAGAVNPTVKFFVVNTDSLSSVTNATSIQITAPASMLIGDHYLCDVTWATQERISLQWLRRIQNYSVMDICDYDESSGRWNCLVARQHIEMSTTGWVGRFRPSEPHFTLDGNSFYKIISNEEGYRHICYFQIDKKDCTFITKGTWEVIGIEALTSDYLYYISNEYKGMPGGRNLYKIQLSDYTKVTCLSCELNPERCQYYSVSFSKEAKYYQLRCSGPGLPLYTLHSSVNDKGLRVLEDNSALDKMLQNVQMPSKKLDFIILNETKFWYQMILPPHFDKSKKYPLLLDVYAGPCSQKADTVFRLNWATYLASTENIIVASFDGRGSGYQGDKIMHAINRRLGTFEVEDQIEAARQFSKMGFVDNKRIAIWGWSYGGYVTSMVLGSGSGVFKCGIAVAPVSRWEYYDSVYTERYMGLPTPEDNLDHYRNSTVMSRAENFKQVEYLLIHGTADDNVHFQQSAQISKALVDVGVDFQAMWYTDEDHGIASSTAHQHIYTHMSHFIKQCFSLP

## CCCC[C@H](NC(=O)C(C)(C)NC(=O)[C@@H](NC(=O)[C@H](CO)NC(=O)[C@H](Cc1ccc(O)cc1)NC(=O)[C@H](CCC(=O)O)NC(=O)[C@H](CO)NC(=O)[C@@H](NC(=O)[C@H](Cc1ccccc1)NC(=O)[C@@H](NC(=O)CNC(=O)CCCC(=O)O)[C@@H](C)O)[C@@H](C)CC)[C@@H](C)CC)C(=O)N[C@@H](CCC(=O)O)C(=O)N[C@@H](CCCCN)C(=O)N[C@H](C(=O)N[C@@H](CCCCNC(=O)COCCOCCNC(=O)COCCOCCNC(=O)CC[C@H](NC(=O)CCCCCCCCCCCCCCCCC(=O)O)C(=O)O)C(=O)N[C@@H](CCC(N)=O)C(=O)N[C@@H](CCC(N)=O)C(=O)N[C@@H](CCC(=O)O)C(=O)N[C@@H](Cc1ccccc1)C(=O)N[C@H](C(=O)N[C@@H](CCC(=O)O)C(=O)N[C@@H](Cc1c[nH]c2ccccc12)C(=O)N[C@@H](CC(C)C)C(=O)N[C@@H](CC(C)C)C(=O)N[C@@H](C)C(=O)N[C@@H](CCC(N)=O)C(=O)N[C@@H](CCCCN)C(=O)N1CCC[C@H]1C(=O)N[C@@H](CO)C(=O)N[C@@H](CO)C(=O)NCC(=O)N[C@@H](C)C(=O)N1CCC[C@H]1C(=O)N1CCC[C@H]1C(=O)N1CCC[C@H]1C(=O)N[C@@H](CO)C(=O)O)C(C)C)[C@@H](C)CC [Compound 2] (Glutaryl-GTFISEYSI[Aib][Nle]EKIK([AEEA-AEEA-γGlu-C18 diacid])QQEFVEWLLAQKPSSGAPPPS-OH)
[1]
  half life (in words): long half live

## EGTFISEYSIAibLEKIKQQEFVEWLLAQKPSSGAPPPS-C16-diacid/18K (GIP(3-30)+Cex(31-39) [D9E;A13Aib;M14L;D15E;H18K;D21E;N24E]) (EGTFISEYSI[Aib]LEKIK(C16 diacid)QQEFVEWLLAQKPSSGAPPPS; ends and bridges not checked) [Compound 1]
[2]; 42 days treatment, placebo gained 9%
  body weight during the study period (in words): maintained body weight; also recorded: no change in weight
[2]; FIG. 1D
  fasting triglycerides (in words): reduced fasting triglycerides
[2]; at day 43, FIG. 1C, placebo 25.1
  average HOMA-IR (Homeostatic Model Assessment for Insulin Resistance): 13.0
[2]; from predose
  reduction in LDL-c (individual %-change from predose): 26%

## NaAc-K10[γEγE-C16]-Arg18-hGIP(5-42) [GIPA-2]
[3]
  absolute body weight or cumulative food intake: no effect
[3]; in mice
  GIPR antagonist potency in mice (comparison): more potent antagonist than GIPA-1
  glucose stimulated insulin secretion: inhibited glucose stimulated insulin secretion

## mouse GIP(3-30)NH2 (EGTFISDYSIAMDKIRQQDFVNWLLAQR-NH2; UniProt P48756 46-73, looked up, fragment) [GIPA-1, GIPR antagonist GIP peptide of West et al. 2021]
[3]
  absolute body weight or cumulative food intake: no effect

## GLP-1: 31-amino acid peptide derived from the proglucagon gene, secreted by intestinal L-cells
DPP-IV enzyme
  half-life: approximately 2 minutes

## (Pro3)GIP
high-fat mice
  glucose tolerance: significantly improved glucose tolerance
  glycaemic control: restored glycaemic control to normal levels
  food intake and body weights: not affected

## (d-Ala8)GLP-1
high-fat mice
  glucose tolerance: significantly improved glucose tolerance
  glycaemic control: restored glycaemic control to normal levels
  food intake and body weights: not affected
